Measured values taken from patent US6987114B1, “Antiviral pyrimidinedione derivatives and process for the preparation thereof” (Samjin Pharmaceutical Co., Ltd, priority 1999, dated 2006).
Values after ≈ are worked out from the molar mass of the structure shown. Where two headings read alike, the source gives them in different places.

Experiments:
HIV = test: microbe, parasite or virus in culture; format: cell-based
In short: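 MT-4 cells (2.5×10^5 cells/ml) infected with 1000 CCID50 HIV, added at once to compound dilutions, incubated 4 or 5 days at 37° C. Protection from virus-induced cytopathic effect read by MTT; cytotoxicity from MTT viability of mock-infected cells in parallel.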

mock-infected MT-4 cells = test: Cytotoxicity based on viability of mock-infected host cells (MTT method); format: cell-based; conditions: mock-infected MT-4 cells, MTT method, 4 or 5 days at 37° C.
In short: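 Mock-infected MT-4 cells at 2.5×10^5 cells/ml were exposed to various concentrations of test compound, run in parallel with HIV-infected (1000 CCID50) cultures. After 4 or 5 days at 37° C., host-cell viability was read by MTT.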

[1] = Human immunodeficiency virus 1, MT4, HIV-infected MT-4 cells, MTT method, 4 or 5 days at 37° C., read-out: ED50 (the source's name)
[2] = Human immunodeficiency virus 1, MT4, read-out: ED50

## Cc1cc(C)cc(Oc2c(C(C)C)c(=O)[nH]c(=O)n2Cc2ccccn2)c1 [Example 112, 1-(Pyridin-2-ylmethyl)-5-isopropyl-6-(3,5-dimethylphenoxy)-2,4-pyrimidinedione]
HIV; [1]
  EC50: 0.029 µg/mL (≈ 0.0794 µM)
mock-infected MT-4 cells
  CD50: >100.00 µg/mL
other
  melting point: 220 to 223 °C

## CCc1c(C(=O)c2cc(C)cc(C)c2)n(Cc2ccccn2)c(=O)[nH]c1=O [Example 113, 1-(Pyridin-2-ylmethyl)-5-ethyl-6-(3,5-dimethylbenzoyl)-2,4-pyrimidinedione]
HIV; [1]
  EC50: 0.0084 µg/mL (≈ 0.0231 µM)
mock-infected MT-4 cells
  CD50: 32.80 µg/mL
other
  melting point: 153 to 155 °C

## CCc1c(Sc2cc(C)cc(C)c2)n(Cc2cccnc2)c(=O)[nH]c1=O [Example 115, 1-(Pyridin-3-ylmethyl)-5-ethyl-6-(3,5-dimethylphenyl)thio-2,4-pyrimidinedione]
HIV; [2]
  EC50: 0.014 µg/mL (≈ 0.0381 µM)
mock-infected MT-4 cells
  CD50: 16.63 µg/mL
other
  melting point: 202 to 205 °C

## Cc1cc(C)cc(Sc2c(C(C)C)c(=O)[nH]c(=O)n2Cc2cccnc2)c1 [Example 116, 1-(Pyridin-3-ylmethyl)-5-isopropyl-6-(3,5-dimethylphenyl)thio-2,4-pyrimidinedione]
HIV; [2]
  EC50: 0.003 µg/mL (≈ 0.00786 µM)
mock-infected MT-4 cells
  CD50: 10.09 µg/mL
other
  melting point: 159 to 161 °C

## CCc1c(Oc2cc(C)cc(C)c2)n(Cc2cccnc2)c(=O)[nH]c1=O [Example 117, 1-(Pyridin-3-ylmethyl)-5-ethyl-6-(3,5-dimethylphenoxy)-2,4-pyrimidinedione]
HIV; [2]
  EC50: 0.061 µg/mL (≈ 0.174 µM)
mock-infected MT-4 cells
  CD50: 40.20 µg/mL
other
  melting point: 230 to 232 °C

## Cc1cc(C)cc(Oc2c(C(C)C)c(=O)[nH]c(=O)n2Cc2cccnc2)c1 [Example 118, 1-(Pyridin-3-ylmethyl)-5-isopropyl-6-(3,5-dimethylphenoxy)-2,4-pyrimidinedione]
HIV; [2]
  EC50: 0.015 µg/mL (≈ 0.041 µM)
mock-infected MT-4 cells
  CD50: 33.50 µg/mL
other
  melting point: 190 to 193 °C

## CCc1c(C(=O)c2cc(C)cc(C)c2)n(Cc2cccnc2)c(=O)[nH]c1=O [Example 119, 1-(Pyridin-3-ylmethyl)-5-ethyl-6-(3,5-dimethylbenzoyl)-2,4-pyrimidinedione]
HIV; [2]
  EC50: 0.0038 µg/mL (≈ 0.0105 µM)
mock-infected MT-4 cells
  CD50: 39.00 µg/mL
other
  melting point: 170 to 172 °C

## Cc1cc(C)cc(C(=O)c2c(C(C)C)c(=O)[nH]c(=O)n2Cc2cccnc2)c1 [Example 120, 1-(Pyridin-3-ylmethyl)-5-isopropyl-6-(3,5-dimethylbenzoyl)-2,4-pyrimidinedione]
HIV; [2]
  EC50: 0.002 µg/mL (≈ 0.0053 µM)
mock-infected MT-4 cells
  CD50: 8.80 µg/mL
other
  melting point: 178 to 180 °C

## CCc1c(Sc2cc(C)cc(C)c2)n(Cc2cccc(Cl)n2)c(=O)[nH]c1=O [Example 121, 1-(2-Chloropyridin-6-ylmethyl)-5-ethyl-6-(3,5-dimethyl-phenyl)thio-2,4-pyrimidinedione]
HIV; [1]
  EC50: > 7.72 µg/mL
mock-infected MT-4 cells
  CD50: 7.72 µg/mL
other
  melting point: 145 to 148 °C

## Cc1cc(C)cc(Sc2c(C(C)C)c(=O)[nH]c(=O)n2Cc2cccc(Cl)n2)c1 [Example 122, 1-(2-Chloropyridin-6-ylmethyl)-5-isopropyl-6-(3,5-dimethylphenyl)thio-2,4-pyrimidinedione]
HIV; [1]
  EC50: > 2.8 µg/mL
mock-infected MT-4 cells
  CD50: 2.80 µg/mL
other
  melting point: 159 to 161 °C

## CCc1c(Oc2cc(C)cc(C)c2)n(Cc2cccc(Cl)n2)c(=O)[nH]c1=O [Example 123, 1-(2-Chloropyridin-6-ylmethyl)-5-ethyl-6-(3,5-dimethylphenoxy)-2,4-pyrimidinedione]
HIV; [1]
  EC50: 0.122 µg/mL (≈ 0.316 µM)
mock-infected MT-4 cells
  CD50: 79.14 µg/mL
other
  melting point: 199 to 201 °C

## Cc1cc(C)cc(Oc2c(C(C)C)c(=O)[nH]c(=O)n2Cc2cccc(Cl)n2)c1 [Example 124, 1-(2-Chloropyridin-6-ylmethyl)-5-isopropyl-6-(3,5-dimethylphenoxy)-2,4-pyrimidinedione]
HIV; [1]
  EC50: 0.082 µg/mL (≈ 0.205 µM)
mock-infected MT-4 cells
  CD50: >100.00 µg/mL
other
  melting point: 223 to 225 °C

## CCc1c(C(=O)c2cc(C)cc(C)c2)n(Cc2cccc(Cl)n2)c(=O)[nH]c1=O [Example 125, 1-(2-Chloropyridin-6-ylmethyl)-5-ethyl-6-(3,5-dimethyl-benzoyl)-2,4-pyrimidinedione]
HIV; [1]
  EC50: 0.015 µg/mL (≈ 0.0377 µM)
mock-infected MT-4 cells
  CD50: 9.02 µg/mL
other
  melting point: 196 to 198 °C

## Cc1cc(C)cc(C(=O)c2c(C(C)C)c(=O)[nH]c(=O)n2Cc2cccc(Cl)n2)c1 [Example 126, 1-(2-Chloropyridin-6-ylmethyl)-5-isopropyl-6-(3,5-dimethylbenzoyl)-2,4-pyrimidinedione]
HIV; [1]
  EC50: 0.011 µg/mL (≈ 0.0267 µM)
mock-infected MT-4 cells
  CD50: 9.85 µg/mL
other
  melting point: 206 to 208 °C

## CCc1c(Oc2cc(C)cc(C)c2)n(Cc2cccc(Br)n2)c(=O)[nH]c1=O [Example 127, 1-(2-Bromopyridin-6-ylmethyl)-5-ethyl-6-(3,5-dimethylphenoxy)-2,4-pyrimidinedione]
HIV; [1]
  EC50: 0.194 µg/mL (≈ 0.451 µM)
mock-infected MT-4 cells
  CD50: 9.46 µg/mL
other
  melting point: 201 to 203 °C

## Cc1cc(C)cc(Oc2c(C(C)C)c(=O)[nH]c(=O)n2Cc2cccc(Br)n2)c1 [Example 128, 1-(2-Bromopyridin-6-ylmethyl)-5-isopropyl-6-(3,5-dimethylphenoxy)-2,4-pyrimidinedione]
HIV; [1]
  EC50: 0.079 µg/mL (≈ 0.178 µM)
mock-infected MT-4 cells
  CD50: 48.27 µg/mL
other
  melting point: 228 to 230 °C

## Cc1cc(C)cc(C(=O)c2c(C(C)C)c(=O)[nH]c(=O)n2Cc2cccc(Br)n2)c1 [Example 130, 1-(2-Bromopyridin-6-ylmethyl)-5-isopropyl-6-(3,5-dimethyl-benzoyl)-2,4-pyrimidinedione]
HIV; [1]
  EC50: 0.015 µg/mL (≈ 0.0329 µM)
mock-infected MT-4 cells
  CD50: 8.85 µg/mL
other
  melting point: 218 to 220 °C

## CCc1c(Sc2cc(C)cc(C)c2)n(Cc2ccc3ccccc3n2)c(=O)[nH]c1=O [Example 131, 1-(Quinolin-2-ylmethyl)-5-ethyl-6-(3,5-dimethylphenyl)-thio-2,4-pyrimidinedione]
HIV; [1]
  EC50: > 10.6 µg/mL
mock-infected MT-4 cells
  CD50: 10.60 µg/mL
other
  melting point: 107 to 110 °C

## Cc1cc(C)cc(Sc2c(C(C)C)c(=O)[nH]c(=O)n2Cc2ccc3ccccc3n2)c1 [Example 132, 1-(Quinolin-2-ylmethyl)-5-isopropyl-6-(3,5-dimethylphenyl)thio-2,4-pyrimidinedione]
HIV; [1]
  EC50: > 9.58 µg/mL
mock-infected MT-4 cells
  CD50: 9.60 µg/mL
other
  melting point: 181 to 183 °C

## CCc1c(Oc2cc(C)cc(C)c2)n(Cc2ccc3ccccc3n2)c(=O)[nH]c1=O [Example 133, 1-(Quinolin-2-ylmethyl)-5-ethyl-6-(3,5-dimethyl-phenoxy)-2,4-pyrimidinedione]
HIV; [1]
  EC50: 0.06 µg/mL (≈ 0.149 µM)
mock-infected MT-4 cells
  CD50: 11.70 µg/mL
other
  melting point: 220 to 222 °C

## Cc1cc(C)cc(Oc2c(C(C)C)c(=O)[nH]c(=O)n2Cc2ccc3ccccc3n2)c1 [Example 134, 1-(Quinolin-2-ylmethyl)-5-isopropyl-6-(3,5-dimethyl-phenoxy)-2,4-pyrimidinedione]
HIV; [1]
  EC50: 0.004 µg/mL (≈ 0.00963 µM)
mock-infected MT-4 cells
  CD50: 66.80 µg/mL
other
  melting point: 246 to 248 °C

## CCc1c(C(=O)c2cc(C)cc(C)c2)n(Cc2ccc3ccccc3n2)c(=O)[nH]c1=O [Example 135, 1-(Quinolin-2-ylmethyl)-5-ethyl-6-(3,5-dimethylbenzoyl)-2,4-pyrimidinedione]
HIV; [1]
  EC50: 0.0089 µg/mL (≈ 0.0215 µM)
mock-infected MT-4 cells
  CD50: 6.80 µg/mL
other
  melting point: 218 to 220 °C

## Cc1cc(C)cc(C(=O)c2c(C(C)C)c(=O)[nH]c(=O)n2Cc2ccc3ccccc3n2)c1 [Example 136, 1-(Quinolin-2-ylmethyl)-5-isopropyl-6-(3,5-dimethyl-benzoyl)-2,4-pyrimidinedione]
HIV; [1]
  EC50: 0.0097 µg/mL (≈ 0.0227 µM)
mock-infected MT-4 cells
  CD50: 8.70 µg/mL
other
  melting point: 152 to 154 °C

## CCc1c(Oc2cc(C)cc(C)c2)n(Cn2nnc3ccccc32)c(=O)[nH]c1=O [Example 141, 1-(1H-benzotriazol-1-ylmethyl)-5-ethyl-6-(3,5-dimethylphenoxy)-2,4-pyrimidinedione]
HIV; [1]
  EC50: 0.11 µg/mL (≈ 0.281 µM)
mock-infected MT-4 cells
  CD50: 27.60 µg/mL
other
  melting point: 248 to 249 °C

## Cc1cc(C)cc(Oc2c(C(C)C)c(=O)[nH]c(=O)n2Cn2nnc3ccccc32)c1 [Example 142, 1-(1H-benzotriazol-1-ylmethyl)-5-isopropyl-6-(3,5-dimethylphenoxy)-2,4-pyrimidinedione]
HIV; [1]
  EC50: 0.044 µg/mL (≈ 0.109 µM)
mock-infected MT-4 cells
  CD50: >100.00 µg/mL
other
  melting point: 278 to 279 °C

## CCc1c(C(=O)c2cc(C)cc(C)c2)n(Cn2nnc3ccccc32)c(=O)[nH]c1=O [Example 143, 1-(1H-benzotriazol-1-ylmethyl)-5-ethyl-6-(3,5-dimethylbenzoyl)-2,4-pyrimidinedione]
HIV; [1]
  EC50: 0.026 µg/mL (≈ 0.0644 µM)
mock-infected MT-4 cells
  CD50: 9.76 µg/mL
other
  melting point: 226 to 229 °C

## Cc1cc(C)cc(C(=O)c2c(C(C)C)c(=O)[nH]c(=O)n2Cn2nnc3ccccc32)c1 [Example 144, 1-(1H-benzotriazol-1-ylmethyl)-5-isopropyl-6-(3,5-dimethyl-benzoyl)-2,4-pyrimidinedione]
HIV; [1]
  EC50: 0.03 µg/mL (≈ 0.0719 µM)
mock-infected MT-4 cells
  CD50: 8.89 µg/mL
other
  melting point: 246 to 247 °C

## CCc1c(Sc2cc(C)cc(C)c2)n(Cc2nc3ccccc3o2)c(=O)[nH]c1=O [Example 145, 1-(Benzoxazol-2-ylmethyl)-5-ethyl-6-(3,5-dimethylphenyl)thio-2,4-pyrimidinedione]
HIV; [2]
  EC50: 3.04 µg/mL (≈ 7.46 µM)
mock-infected MT-4 cells
  CD50: >100.00 µg/mL
other
  melting point: 104 to 106 °C

## Cc1cc(C)cc(Sc2c(C(C)C)c(=O)[nH]c(=O)n2Cc2nc3ccccc3o2)c1 [Example 146, 1-(Benzoxazol-2-ylmethyl)-5-isopropyl-6-(3,5-dimethylphenyl)thio-2,4-pyrimidinedione]
HIV; [2]
  EC50: 1.02 µg/mL (≈ 2.42 µM)
mock-infected MT-4 cells
  CD50: >100.00 µg/mL
other
  melting point: 107 to 109 °C
